From the supplement of paper PMC10307832

How the values were obtained:
Assay in all cases: relative viability (nuclei count vs DMSO), 5 days (fraction); higher = more cells survive
Venetoclax + OSI-027 = compound: CC1(C)CCC(CN2CCN(c3ccc(C(=O)NS(=O)(=O)c4ccc(NCC5CCOCC5)c([N+](=O)[O-])c4)c(Oc4cnc5[nH]ccc5c4)c3)CC2)=C(c2ccc(Cl)cc2)C1 [Venetoclax] + COc1cccc2cc(-c3nc([C@H]4CC[C@H](C(=O)O)CC4)n4ncnc(N)c34)[nH]c12 [OSI-027] (partner 0.5 µM)
Summary of the method: (§1)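 Lung cancer cell lines, seeded in 1536-well plates, were treated the following day by pin tool with a single drug or with five library-drug doses (not always all listed) in √10 steps on top of a fixed anchor-drug dose. Cells were fixed and nuclei stained in one step after 5 days, and nuclei were counted. Relative viability is the nuclei count for treated wells divided by that for vehicle wells, reported as medians of duplicate plates.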

Selumetinib + OSI-027 = compound: Cn1cnc2c(F)c(Nc3ccc(Br)cc3Cl)c(C(=O)NOCCO)cc21 [Selumetinib] + COc1cccc2cc(-c3nc([C@H]4CC[C@H](C(=O)O)CC4)n4ncnc(N)c34)[nH]c12 [OSI-027] (partner 0.5 µM)
Summary of the method: as §1

Venetoclax + Crizotinib = compound: CC1(C)CCC(CN2CCN(c3ccc(C(=O)NS(=O)(=O)c4ccc(NCC5CCOCC5)c([N+](=O)[O-])c4)c(Oc4cnc5[nH]ccc5c4)c3)CC2)=C(c2ccc(Cl)cc2)C1 [Venetoclax] + C[C@@H](Oc1cc(-c2cnn(C3CCNCC3)c2)cnc1N)c1c(Cl)ccc(F)c1Cl [Crizotinib] (partner 1 µM)
Summary of the method: as §1

Venetoclax + Decitabine = compound: CC1(C)CCC(CN2CCN(c3ccc(C(=O)NS(=O)(=O)c4ccc(NCC5CCOCC5)c([N+](=O)[O-])c4)c(Oc4cnc5[nH]ccc5c4)c3)CC2)=C(c2ccc(Cl)cc2)C1 [Venetoclax] + Nc1ncn([C@H]2C[C@H](O)[C@@H](CO)O2)c(=O)n1 [Decitabine] (partner 2 µM)
Summary of the method: as §1

Cell Line	relative viability (Venetoclax + OSI-027; first compound 0.01 µM)	relative viability (Venetoclax + OSI-027; first compound 0.03162 µM)	relative viability (Venetoclax + OSI-027; first compound 0.1 µM)	relative viability (Venetoclax + OSI-027; first compound 0.3162 µM)	relative viability (Venetoclax + OSI-027; first compound 1 µM)	relative viability (Selumetinib + OSI-027; first compound 0.02 µM)	relative viability (Selumetinib + OSI-027; first compound 0.06325 µM)	relative viability (Selumetinib + OSI-027; first compound 0.2 µM)	relative viability (Selumetinib + OSI-027; first compound 0.6325 µM)	relative viability (Venetoclax + Crizotinib; first compound 0.01 µM)	relative viability (Venetoclax + Crizotinib; first compound 0.03162 µM)	relative viability (Venetoclax + Crizotinib; first compound 0.1 µM)	relative viability (Venetoclax + Crizotinib; first compound 1 µM)	relative viability (Venetoclax + Decitabine; first compound 0.01 µM)	relative viability (Venetoclax + Decitabine; first compound 0.03162 µM)	relative viability (Venetoclax + Decitabine; first compound 0.1 µM)	relative viability (Venetoclax + Decitabine; first compound 0.3162 µM)	relative viability (Venetoclax + Decitabine; first compound 1 µM)	relative viability (Venetoclax + Crizotinib; first compound 0.3162 µM)
NCI-H661	0.682	0.789	0.705	0.681	0.617	0.804	0.582	0.571	0.57	0.987	1.09	1.12	1.05	0.561	0.528	0.547	0.532	0.529	–
NCI-H1975	0.768	0.788	0.667	0.702	0.68	0.8	0.57	0.676	0.527	1.13	0.907	0.974	0.867	0.358	0.371	0.414	0.393	0.43	0.879
ChaGo-K-1	0.716	0.634	0.516	0.552	0.479	0.562	0.504	0.524	0.528	1.1	1.27	–	1.08	0.465	0.503	0.488	0.545	0.519	1.16
NCI-H1437	0.942	0.888	0.845	0.763	0.802	0.802	0.56	0.531	0.324	0.851	0.941	0.949	0.864	0.659	0.52	0.52	0.542	0.556	0.899
NCI-H1666	0.699	0.843	0.839	0.733	0.784	0.909	0.717	0.793	0.717	0.94	0.985	1.02	0.916	0.719	0.783	0.748	0.676	0.741	1
NCI-H2085	0.838	0.769	0.707	0.746	0.53	0.71	0.499	0.35	0.428	0.815	0.903	0.765	0.745	0.549	0.59	0.582	0.566	0.565	1.02
LXF-289	0.753	0.857	0.881	0.771	0.623	0.796	0.73	0.648	0.519	0.832	0.816	0.776	0.702	0.35	0.37	0.385	0.387	0.4	0.798
NCI-H322M	0.667	0.575	0.605	0.564	0.48	0.487	0.434	0.477	0.45	0.988	0.838	0.912	0.878	0.709	0.695	0.685	0.804	0.747	0.894
LU99A	0.288	0.321	0.316	0.338	0.295	0.338	0.308	0.331	0.301	0.555	0.587	0.576	0.526	0.758	0.957	0.831	0.803	0.858	0.586
NCI-H650	0.533	0.552	0.561	0.528	0.459	0.66	0.806	0.825	0.826	0.725	0.699	–	0.641	0.326	0.311	0.326	0.31	0.372	0.701
PC-14	0.735	0.875	0.696	0.855	0.722	0.752	0.716	0.73	0.538	0.844	0.972	1.06	0.801	0.298	0.164	0.224	0.207	0.213	0.864
HARA	0.427	0.571	0.452	0.427	0.362	0.481	0.443	0.327	0.263	0.946	1.07	0.603	1.08	0.62	0.633	–	0.72	0.606	1.04
SK-MES-1	0.61	0.626	0.599	0.572	0.518	0.603	0.598	0.587	0.447	1.01	1.08	1.05	0.843	0.305	0.428	0.367	0.404	0.391	1.01
NCI-H1650	0.531	0.856	0.606	0.783	0.529	0.677	0.405	0.637	0.548	0.831	0.986	–	0.842	0.545	0.422	0.408	0.407	0.363	0.74
HOP-62	0.879	0.861	0.842	0.838	0.78	0.887	0.751	0.818	0.5	0.896	0.867	0.79	0.83	0.182	0.203	0.199	0.216	0.218	1.1
LK-2	0.317	0.204	0.22	0.22	0.161	0.2	0.229	0.203	0.189	0.192	0.214	0.262	0.253	0.204	0.359	0.305	0.231	0.294	0.248
HCC-44	0.609	0.652	0.539	0.589	0.477	0.482	0.388	0.35	0.368	0.748	0.852	0.83	0.762	0.938	0.919	0.87	0.892	0.949	0.778
